In patent US20240002789A1, “SKIN SPHEROIDS AND PROCESS OF PREPARATION AND USE THEREOF” (The Governing Council of The University of Toronto, priority 2020, published 2024):

How the values were obtained:
Type in all cases: cell-based, human
[1] = system: dermal fibroblasts spheroids (DFSs); assay: On-chip screening of active ingredients on DFSs: collagen type I and fibronectin secretion (ELISA of culture supernatant)
Protocol: The microfluidic device was first, purged for 20 min with fluorinated oil with 0.5 wt % 008-fluorosurfactant (RAN Biotechnologies, USA) at a flow rate of 0.1 mL/hr. Subsequently, the supplying channel and the microwells were filled with the hDFs-in-EKGel I suspension with a cell density of 4.9×10^5 cells/μL. After that, the cell suspension in the supplying channel was replaced with fluorinated oil with 0.5 wt % surfactants. The inlet and outlet of the microfluidics quadruplet device were then sealed with PCR sealing tape and incubated at 37° C. for 2 hours, allowing EKGel to gel. Subsequently, the complete culture medium was continuously flowed through the supplying channel at the flow rate of 0.025 mL/hr. On the second day (Day 1), hDFs-laden EKGel droplets transformed into dermal fibroblasts spheroids (DFSs). Due to the contraction of DFSs, free space was present in each microwell, which allowed the incorporation of a second layer. To introduce another layer of keratinocytes, the culture medium was replaced by fluorinated oil with 0.5 wt % surfactants.
(§1) To study the effect of vitamin C or retinol on DFSs or KDFSs, on Day 2 the complete culture medium was replaced with 1% FBS DMEM culture medium with 1% (v/v) penicillin/streptomycin containing 0, 20, or 100 μg/mL vitamin C. Retinol at concentrations of 0, 30, 45, 60 μM was dissolved in 1% FBS DMEM culture medium with 1% (v/v) penicillin/streptomycin and 0.1% dimethyl sulfoxide (DMSO). The culture supernatant was collected from the outlet every 24-hours for analysis.
The amount of procollagen type I and fibronectin synthesized by hDFs and released in the supernatant were quantified using two ELISA kits, namely, Procollagen Type I C-Peptide (PIP) ELISA kit (MK101, Takara Bio Inc.) and Fibronectin ELISA kit (MK115, Takara Bio Inc.). Procollagen type I was used as the indicator for the collagen type I synthesized from hDFs. To determine the amount of procollagen type I synthesized by the cells, 20 μL collected culture supernatant and 100 μL of the anti-PIP antibody-peroxidase (POD) were added into a 96-well microplate coated with anti-PIP antibody and incubated at 37° C. for 3 hours. To determine the amount of fibronectin synthesized by the cells, 100 μL of the supernatant was first, added to the antibody-coated 96-well microplate for 1 hour at 37° C., thus allowing the fibronectin in the supernatant to bond to the antibody-coated on the microplate.
The supernatant was then discarded, and the microplates were washed with 1×PBS (MK021, Takara Bio Inc.) three times. Subsequently, the captured fibronectin was tagged by adding 100 μL of anti-human fibronectin antibody-POD conjugate into the microplate and incubating it for another 1 hour at 37° C. Upon completion of the antibody-POD conjugate incubation for both assays, the liquid content in the microwells was discarded and the microwells were washed four times with 1×PBS. 100 μL substrate solution (solution of 3,3′,5,5′-tetramethylbenzidine) was then added to the wells and incubated at room temperature for 15 min. Subsequently, 100 μL stop solution (MK021, Takara Bio Inc.) was added to each well. After stopping the reaction between POD and substrate, the absorbance of the contents of each microwell at 450 nm was measured by the CLARIOstar plate reader.

[2] = system: keratinocyte-dermal fibroblasts spheroids (KDFSs); assay: Vitamin C screening on KDFSs: collagen type I and fibronectin secretion; conditions: 24-hour treatment; KDFSs from two lineages of dermal fibroblasts
Protocol: Keratinocytes were suspended in EKGel II precursor solution at a cell/gel mass ratio of 75:25. The keratinocytes-in-EKGel II suspension was then purged into the channel and filled the microwells. Consequently, the cell suspension in the supplying channel was washed away by fluorinated oil mixed with 0.5 wt % surfactants. The device was sealed and incubated at 37° C. for 1 hour. Finally, the complete culture medium was flowed to the microfluidic device at the flow rate of 0.025 mL/hr. On Day 2, keratinocytes aggregated and integrated with the hDF core to form layered skin spheroids, KDFSs.
To study the effect of vitamin C or retinol on DFSs or KDFSs, on Day 2 the complete culture medium was replaced with 1% FBS DMEM culture medium with 1% (v/v) penicillin/streptomycin containing 0, 20, or 100 μg/mL vitamin C. […]
The amount of procollagen type I and fibronectin synthesized by hDFs and released in the supernatant were quantified using two ELISA kits, namely, Procollagen Type I C-Peptide (PIP) ELISA kit (MK101, Takara Bio Inc.) and Fibronectin ELISA kit (MK115, Takara Bio Inc.). […]
The supernatant was then discarded, and the microplates were washed with 1×PBS (MK021, Takara Bio Inc.) three times. […] After stopping the reaction between POD and substrate, the absorbance of the contents of each microwell at 450 nm was measured by the CLARIOstar plate reader.

[3] = system: dermal fibroblasts spheroids (DFSs); assay: Immunofluorescence staining of collagen type I and fibronectin deposited in DFSs on the chip; conditions: 72-hour treatment, 100 μg/mL vs 0 μg/mL vitamin C
Protocol: as §1
The immunofluorescence staining on DFSs/KDFSs formed in the microfluidic device was conducted by flowing a series of solutions at a flow rate of 0.15 mL/hr into the supplying microchannel in the following order. First, 1× Hanks' Balanced Salt Solution (HBSS) was flowed into the device for 20 min to remove the cell culture medium. Subsequently, a 5% formalin solution in HBSS was flowed to fix the DFSs/DKFSs. Subsequently, the formalin was washed away by purging 0.1 M glycine in 1×HBSS for 60 min. To permeate the DFSs/KDFSs, 0.5% triton-X in 1×HBSS was flowed into the device for 30 min. Subsequently, an immunofluorescence (IF) solution (consisting of 0.05 wt % NaN3, 0.1 wt % bovine serum albumin, 0.2 vol. % triton-X-100 and 0.05 vol. % Tween-20 in HBSS) was flowed to the microfluidics for 45 min. Primary blocking solution (10 wt % goat serum in IF washing solution) was then flowed for 60 min. […]

[4] = 100 μg/mL vitamin C for 24-hours

| Compound | effect on fibronectin production in DFSs ([1]; retinol 30 μM, preliminary study) | effect on fibronectin production in DFSs ([1]; retinol 45 μM, preliminary study) | effect of retinol on DFSs (fibronectin production) ([1]; retinol 60 μM, longer incubation time (day 5), preliminary study) | effect on collagen expression in DFSs ([1]; retinol 30, 45, 60 μM, preliminary study) | collagen type I secretion from DFSs [1, 4] | fibronectin secretion from DFSs [1, 4] | concentration required to stimulate the production of collagen and fibronectin in KDFSs compared to DFSs [2] | deposition of collagen type I in DFSs [3] | deposition of fibronectin in DFSs [3] |
| --- | --- | --- | --- | --- | --- | --- | --- | --- | --- |
| CC1=C(/C=C/C(C)=C/C=C/C(C)=C/CO)C(C)(C)CCC1 [retinol] | positive and significant effect | positive and significant effect | negative effect | significant positive effect of retinol was not yet observed |  |  |  |  |  |
| O=C1O[C@H]([C@@H](O)CO)C(O)=C1O [vitamin C] |  |  |  |  | increased level | increased level | a higher concentration of vitamin C was required | increased | increased |
